According to patent publication US12233129B2, “Methods and compositions for the treatment of cancer” (priority 2019, dated 2025):

Key:
SW480 = test: Long-term (10 days) exposure colony formation / cell viability; assay type: cell-based, human; settings: VTD 10-300 μM, mutant p53
Procedure: (§1) Because colon cancer cells develop resistance to chemotherapy after an initial response, we decided to investigate whether VTD can potentiate the cytotoxic effect of 5-FU when cells receiving long-term therapy mimicking the in vivo therapy. Cells were treated with VTD for 10 days.
(§2) FIG. 20: Sensitization of colon cancer cells to a long-term suboptimal dose of 5-fluorouracil exposure when combined with VTD. (A-D) (A) HCT-116, (B) LoVo, (C) SW-480, and (D) U2OS were treated with VTD (10-300 μM) for 10 days. […] (E-G) (E) HCT-116, (F) LoVo, and (G) U-2OS were treated with suboptimal doses of 5-FU and VTD (50 and 100 μM) for 10 days. […] (H-I) A series of flow cytometry assays using an antibody against the CD44 cancer stem cell marker illustrated that VTD can target CD44+ colon cancer stem cells and eventually eliminate them in a dose-dependent manner, implicating VTD as a potential cancer stem cell-targeting therapy. (J) Tumor tissue lysates from 48 patients with colon cancer along the matched adjacent normal colon tissue lysates were probed with anti-UBXN2A and anti-Actin antibodies, followed by quantitation and normalization of signals. […] (I) The proposed mechanism action of VTD. VTD increases the expression of UBXN2A, which releases the p53 from mot-2's sequestration and, together with standard chemotherapy, can cause an effective tumor suppression.

[1] = tested on: human umbilical vein endothelial cells (HUVECs); test: Effect on non-cancerous cells; assay type: cell-based
From the text: We next performed a clonogenic survival assay (S4E) to determine colony formation in cancer cells in the presence and absence of VTD. […] At the same time, we measured the mot-2, p53, and UBXN2A protein levels in all these cell lines. […] To verify whether VTD-induced cell death is mediated through the UBXN2A-mot-2-p53 axis, we looked at the expression of p53 in the cytoplasm and nucleus of HCT-116 cells following VTD treatment. […] Due to a high cell death in higher doses of VTD, we could not use WB analysis for reliable p53 and UBXN2A detection and quantification. Finally, we checked the effect of VTD on non-cancerous cell lines. We incubated human umbilical vein endothelial cells (HUVECs), which mimic non-cancerous endothelial cells next to tumor cells, with VTD (S4G). […] Due to the different levels of the stress condition, we observed more sensitivity to VTD in LoVo and U2OS cells versus HCT-116 cells. In addition, lack of similar response in normal cells due to the absence of stresses and cytoplasmic mot-2 further explains VTD is therefore a drug that selectively targets cancer cell.

Rictor = test: Flow cytometry with anti-Rictor antibody in SW480 cells; assay type: cell-based, human; settings: VTD 5 days (semi-chronic treatment), N=3
Procedure: In panels A-E, SW480 cells were treated with VTD for 5 days (a semi-chronic treatment) and the cells were collected and subjected to flow-cytometry analysis using anti-Rictor antibody.

LoVo [2] = test: Annexin V early apoptosis, VTD plus etoposide; assay type: cell-based, human; settings: VTD 10-200 μM plus etoposide 5 μM, 24 hours
Procedure: (§3) The viability of cells was calculated as % of control.
(§4) Cells were then stained with Annexin V apoptotic marker.

HCT-116 [3] = test: Annexin V early apoptosis, VTD plus etoposide; assay type: cell-based, human; settings: VTD 10-200 μM plus etoposide 5 μM, 24 hours
Procedure: as §3, §4

U2OS [4] = assay type: cell-based, human; settings: 10 days
Procedure: as §1
(§5) Based on the significant effect of long-term exposure in LoVo and U2OS, we hypothesized that VTD could be a potential complementary strategy alongside 5-FU, an effective drug with a high rate of resistant events in colon tumors. To answer this question, we first determined the minimum concentration of 5-FU that has no effect or a very mild effect on cell viability after 10 days' exposure in three cell lines HCT-116, LoVo, and U2OS (data not shown). We performed the 10 days' treatment using a combination of a low dose of VTD (50 μM or 100 μM) plus a suboptimal dose of 5-FU (1 μM or 5 μM).
as §2

LoVo [5] = assay type: cell-based, human; settings: 10 days
Procedure: as §1, §5, §2

HCT-116 [6] = assay type: cell-based, human; settings: 10 days
Procedure: as §1, §5, §2

U2OS [7] = test: Flow cytometry of CD44+ cancer stem cells; assay type: cell-based, human; settings: intermediate-dose of VTD
From the text: as §5
(§6) FIG. 20: Sensitization of colon cancer cells to a long-term suboptimal dose of 5-fluorouracil exposure when combined with VTD. (A-D) (A) HCT-116, (B) LoVo, (C) SW-480, and (D) U2OS were treated with VTD (10-300 μM) for 10 days. […] (E-G) (E) HCT-116, (F) LoVo, and (G) U-2OS were treated with suboptimal doses of 5-FU and VTD (50 and 100 μM) for 10 days. […] (J) Tumor tissue lysates from 48 patients with colon cancer along the matched adjacent normal colon tissue lysates were probed with anti-UBXN2A and anti-Actin antibodies, followed by quantitation and normalization of signals. […]

LoVo [8] = test: Flow cytometry of CD44+ cancer stem cells; assay type: cell-based, human; settings: intermediate-dose of VTD
From the text: as §5, §6

[9] = VTD 50 or 100 μM plus 5-FU 1 or 5 μM

With `COc1ccc(C(=O)O[C@H]2CC[C@@]3(C)[C@@H]4CC[C@H]5[C@]6(O)C[C@H](O)[C@@]7(O)[C@@H](CN8C[C@@H](C)CC[C@H]8[C@@]7(C)O)[C@]6(O)C[C@@]53O[C@]24O)cc1OC` [VTD, Veratridine] the “cell viability, long-term exposure” value (SW480) was “no response”, the “response of non-cancerous HUVEC cells” value ([1]; first 24 hours) was “did not respond” and the “response of non-cancerous HUVEC cells” value ([1]; highest dose of VTD, 48 hours) was “moderate response”. For the same compound, the “level of Rictor proteins” value (Rictor) was “significantly decreases Rictor proteins”, the “early apoptosis (Annexin V)” value (LoVo [2]) was “significantly increased the early apoptosis” and the “early apoptosis (Annexin V)” value (HCT-116 [3]) was “significantly increased the early apoptosis”. For the same compound, the “cell viability, long-term exposure” value (U2OS [4]; VTD 10-300 μM) was “significant decrease in cell viability in a dose-dependent manner”, the “cytotoxic effect of suboptimal 5-FU in presence of VTD” value (“cytotoxic effect of suboptimal 5-FU” for short) (U2OS [4]; [9]) was “significantly potentiated the cytotoxic effect of the suboptimal dose of 5-FU” and the “cell viability, long-term exposure” value (LoVo [5]; VTD 10-300 μM) was “significant decrease in cell viability in a dose-dependent manner”. For the same compound, the “cytotoxic effect of suboptimal 5-FU” value (LoVo [5]; [9]) was “significantly potentiated the cytotoxic effect of the suboptimal dose of 5-FU”, the “cell viability, long-term exposure” value (HCT-116 [6]; VTD 10-300 μM) was “only responded to a high concentration of VTD” and the “cytotoxic effect of suboptimal 5-FU” value (HCT-116 [6]; [9]) was “significantly potentiated the cytotoxic effect of the suboptimal dose of 5-FU”. The “abundance of CD44+ cancer stem cells” value (U2OS [7]) was “reduces the abundance of the CD44+ cancer stem cells” and the “abundance of CD44+ cancer stem cells” value (LoVo [8]) was “reduces the abundance of the CD44+ cancer stem cells”.
